Data reported in ChEMBL document CHEMBL3232805, “Alkaloids from the roots of Stichoneuron caudatum and their acetylcholinesterase inhibitory activities” (J Nat Prod, 2014).
pIC50: −log10 of the molar value.

Each molecule was assayed against Acetylcholinesterase (Homo sapiens, UniProt P22303) (assay: Inhibition of human AChE by spectrophotometry).
Acetylcholinesterase, sequence (P22303 whole entry): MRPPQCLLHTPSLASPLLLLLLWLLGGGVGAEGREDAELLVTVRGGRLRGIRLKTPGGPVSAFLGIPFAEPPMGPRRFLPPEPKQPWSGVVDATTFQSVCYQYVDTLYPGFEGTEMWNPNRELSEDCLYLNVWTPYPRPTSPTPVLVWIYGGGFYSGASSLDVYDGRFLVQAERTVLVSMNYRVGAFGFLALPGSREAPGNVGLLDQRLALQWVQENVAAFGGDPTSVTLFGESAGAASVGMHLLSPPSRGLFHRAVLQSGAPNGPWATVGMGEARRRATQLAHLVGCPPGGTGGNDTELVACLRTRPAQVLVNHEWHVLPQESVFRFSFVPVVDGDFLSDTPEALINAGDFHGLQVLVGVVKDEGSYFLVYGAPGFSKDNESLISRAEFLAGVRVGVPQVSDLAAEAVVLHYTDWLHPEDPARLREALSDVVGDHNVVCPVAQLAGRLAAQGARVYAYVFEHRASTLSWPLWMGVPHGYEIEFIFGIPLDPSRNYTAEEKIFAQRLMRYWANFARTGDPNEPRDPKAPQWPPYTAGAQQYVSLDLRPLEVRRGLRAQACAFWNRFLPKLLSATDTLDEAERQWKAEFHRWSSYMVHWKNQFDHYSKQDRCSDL

Structure (SMILES)	pIC50
CC[C@H]1[C@H](C[C@H](C)C(=O)OC)O[C@]23CC[C@@H]([C@@H]4C[C@H](C)C(=O)O4)N2CCCC[C@H]13	4.15
CC[C@H]1[C@H](C[C@H](C)C(=O)OC)O[C@]23CC[C@@H]([C@@H]4C[C@H](C)C(=O)O4)N2CCCC[C@]13O	< 4.00
CC[C@H]1[C@H]2OC(=O)[C@](C)(O)[C@H]2[C@]23CC[C@@H]([C@@H]4C[C@@H](C)C(=O)O4)N2CCCC[C@@H]13	5.04
CC[C@@H]1[C@H]2OC(=O)[C@](C)(O)[C@H]2[C@]23CC[C@@H]([C@@H]4C[C@@H](C)C(=O)O4)N2CCCC[C@@H]13	< 4.00
CC[C@@H]1[C@H]2OC(=O)[C@@](C)(O)[C@H]2[C@]23CC[C@@H]([C@@H]4C[C@H](C)C(=O)O4)N2CCCC[C@H]13	4.16
CC[C@H]1[C@@H]2OC(=O)[C@@](C)(O)[C@@H]2[C@@]23CC[C@@H]([C@@H]4C[C@H](C)C(=O)O4)N2CCCC[C@H]13	4.77
CC[C@H]1[C@H]2OC(=O)[C@@](C)(O)[C@H]2[C@]23CC[C@@H]([C@@H]4C[C@H](C)C(=O)O4)N2CCCC[C@H]13	< 4.00
